Tested on: 496974-208-R-J2-PDC complex spheroids, growth % test/control
Assay: Anticancer human tumor 496974-208-R-J2-PDC patient-derived pancreatic carcinoma cell line growth inhibition [CLK]
Settings: for IC50: curve of first compound; for viability, T/C: stronger effect = lower value
How it was run: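 Multi-cell-type spheroids combined patient-derived tumor cells with HUVEC endothelial cells and human mesenchymal stem cells. Paired agents were dosed in half-log steps down from about clinical Cmax, or from 10 microM where Cmax was unknown.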

[1] = second compound 0.0316 µM, first compound 0.0316 µM
[2] = second compound 0.0316 µM, first compound 0.1 µM
[3] = second compound 0.0316 µM, first compound 0.316 µM
[4] = second compound 0.0316 µM, first compound 1 µM
[5] = second compound 0.1 µM, first compound 0.0316 µM
[6] = second compound 0.1 µM, first compound 0.1 µM
[7] = second compound 0.1 µM, first compound 0.316 µM
[8] = second compound 0.1 µM, first compound 1 µM
[9] = second compound 0.316 µM, first compound 0.0316 µM
[10] = second compound 0.316 µM, first compound 0.1 µM
[11] = second compound 0.316 µM, first compound 0.316 µM
[12] = second compound 0.316 µM, first compound 1 µM
[13] = second compound 1 µM, first compound 0.0316 µM
[14] = second compound 1 µM, first compound 0.1 µM
[15] = second compound 1 µM, first compound 0.316 µM
[16] = second compound 1 µM, first compound 1 µM
[17] = second compound 3.16 µM, first compound 0.0316 µM
[18] = second compound 3.16 µM, first compound 0.1 µM
[19] = second compound 3.16 µM, first compound 0.316 µM
[20] = second compound 3.16 µM, first compound 1 µM
[21] = second compound 10 µM, first compound 0.0316 µM
[22] = second compound 10 µM, first compound 0.1 µM
[23] = second compound 10 µM, first compound 0.316 µM
[24] = second compound 10 µM, first compound 1 µM
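Note: spheroids exposed to the drugs for 7 days before readout.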
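Throughout, for viability, T/C: 100% = DMSO vehicle control wells.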

CC(Nc1ccc2c(c1)OCCn1cc(N3C(=O)OCC3C(F)F)nc1-2)C(N)=O (centres undefined) + CNC(=O)c1ccc(Nc2nc(OC3CCCC3)c3c(-c4ccc5nc(C)oc5c4)c[nH]c3n2)c(OC)c1
IC50 (second compound 0.0316 µM): 150 nM | IC50 (second compound 0.1 µM): 184 nM | IC50 (second compound 0.316 µM): 95.5 nM | IC50 (second compound 1 µM): 68.7 nM | IC50 (second compound 3.16 µM): 49.2 nM | IC50 (second compound 10 µM): < 31.6 nM | viability, T/C [1]: 87.2% | viability, T/C [2]: 55.2% | viability, T/C [3]: 38.5% | viability, T/C [4]: 23.6% | viability, T/C (second compound 0.0316 µM, first compound 3.16 µM): 16.9% | viability, T/C (second compound 0.0316 µM, first compound 10 µM): 9.1% | viability, T/C [5]: 70.5% | viability, T/C [6]: 63.7% | viability, T/C [7]: 37.5% | viability, T/C [8]: 23.7% | viability, T/C (second compound 0.1 µM, first compound 3.16 µM): 15.5% | viability, T/C (second compound 0.1 µM, first compound 10 µM): 10.6% | viability, T/C [9]: 76.6% | viability, T/C [10]: 48.4% | viability, T/C [11]: 30.1% | viability, T/C [12]: 23.4% | viability, T/C (second compound 0.316 µM, first compound 3.16 µM): 15.5% | viability, T/C (second compound 0.316 µM, first compound 10 µM): 9.62% | viability, T/C [13]: 58.8% | viability, T/C [14]: 46.8% | viability, T/C [15]: 32.3% | viability, T/C [16]: 20.1% | viability, T/C (second compound 1 µM, first compound 3.16 µM): 18.4% | viability, T/C (second compound 1 µM, first compound 10 µM): 9.57% | viability, T/C [17]: 56.9% | viability, T/C [18]: 38.6% | viability, T/C [19]: 28.3% | viability, T/C [20]: 20% | viability, T/C (second compound 3.16 µM, first compound 3.16 µM): 17.6% | viability, T/C (second compound 3.16 µM, first compound 10 µM): 12.8% | viability, T/C [21]: 47.2% | viability, T/C [22]: 38.8% | viability, T/C [23]: 24.6% | viability, T/C [24]: 19% | viability, T/C (second compound 10 µM, first compound 3.16 µM): 15.6% | viability, T/C (second compound 10 µM, first compound 10 µM): 13.7%

COc1c(OCCCN2CCOCC2)ccc2c3n(c(=NC(=O)c4cnc(N)nc4)nc12)CCN3 + CNC(=O)c1ccc(Nc2nc(OC3CCCC3)c3c(-c4ccc5nc(C)oc5c4)c[nH]c3n2)c(OC)c1
IC50 (second compound 0.0316 µM): 17.4 nM | IC50 (second compound 0.1 µM): 16.2 nM | IC50 (second compound 0.316 µM): 11.1 nM | IC50 (second compound 1 µM): 7.96 nM | IC50 (second compound 3.16 µM): 4.74 nM | IC50 (second compound 10 µM): 3.25 nM | viability, T/C (second compound 0.0316 µM, first compound 0.00316 µM): 88.2% | viability, T/C (second compound 0.0316 µM, first compound 0.01 µM): 68.6% | viability, T/C [1]: 29.4% | viability, T/C [2]: 14.5% | viability, T/C [3]: 9.14% | viability, T/C [4]: 4.1% | viability, T/C (second compound 0.1 µM, first compound 0.00316 µM): 76.9% | viability, T/C (second compound 0.1 µM, first compound 0.01 µM): 64.2% | viability, T/C [5]: 30.2% | viability, T/C [6]: 16.1% | viability, T/C [7]: 12.5% | viability, T/C [8]: 7.78% | viability, T/C (second compound 0.316 µM, first compound 0.00316 µM): 70.3% | viability, T/C (second compound 0.316 µM, first compound 0.01 µM): 53.4% | viability, T/C [9]: 24.8% | viability, T/C [10]: 15.1% | viability, T/C [11]: 11.2% | viability, T/C [12]: 5.48% | viability, T/C (second compound 1 µM, first compound 0.00316 µM): 61.2% | viability, T/C (second compound 1 µM, first compound 0.01 µM): 47.7% | viability, T/C [13]: 27.5% | viability, T/C [14]: 14% | viability, T/C [15]: 12.3% | viability, T/C [16]: 5.46% | viability, T/C (second compound 3.16 µM, first compound 0.00316 µM): 54.4% | viability, T/C (second compound 3.16 µM, first compound 0.01 µM): 42% | viability, T/C [17]: 26.1% | viability, T/C [18]: 16.1% | viability, T/C [19]: 8.87% | viability, T/C [20]: 6.58% | viability, T/C (second compound 10 µM, first compound 0.00316 µM): 50% | viability, T/C (second compound 10 µM, first compound 0.01 µM): 37.7% | viability, T/C [21]: 21.9% | viability, T/C [22]: 12.4% | viability, T/C [23]: 9.58% | viability, T/C [24]: 3.59%

— PubChem BioAssay AID2060615 (Molecular Pharmacology Branch, DTP, NCI, 2025)
